Laboratory results reported in patent US9062043B2, “Fused tricyclic compounds as serine-threonine protein kinase and PARP modulators” (SENHWA BIOSCIENCES, INC., priority 2006, dated 2015).

Assays:
[1] = Body weight of tumor-bearing xenograft animals; format: in vivo; details: BC-PC3 xenograft mice, IV and IP dosing
protein kinases [2] = molecular target: protein kinases (Homo sapiens, UniProt O15530); test: Kinase inhibition, percentage of activity at 0.5 μM, standardized radiometric kinase assays; format: biochemical; details: PDK1(h);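 further: each kinase tested separately, with activity read as 33P-labelled substrate protein captured on filters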
protein kinases [3] = molecular target: protein kinases (Homo sapiens, UniProt P00519); test: as above; format: biochemical; details: Abl(h)
protein kinases [4] = molecular target: protein kinases (Homo sapiens, UniProt P04629); test: as above; format: biochemical; details: TrkA(h)
protein kinases [5] = molecular target: protein kinases (Homo sapiens, UniProt P06493); test: as above; format: biochemical; details: CDK1/cyclinB(h)
protein kinases [6] = molecular target: protein kinases (Homo sapiens, UniProt P07948); test: as above; format: biochemical; details: Lyn(h)
protein kinases [7] = molecular target: protein kinases (Homo sapiens, UniProt P08631); test: as above; format: biochemical; details: Hck(h)
protein kinases [8] = molecular target: protein kinases (Homo sapiens, UniProt P10721); test: as above; format: biochemical; details: cKit(h)
protein kinases [9] = molecular target: protein kinases (Homo sapiens, UniProt P16234); test: as above; format: biochemical; details: PDGFRα(h)
protein kinases [10] = molecular target: protein kinases (Homo sapiens, UniProt P16234, D842V); test: as above; format: biochemical; details: PDGFRα(D842V)(h)
protein kinases [11] = molecular target: protein kinases (Homo sapiens, UniProt P31749); test: as above; format: biochemical; details: PKBα(h)
protein kinases [12] = molecular target: protein kinases (Homo sapiens, UniProt P35916); test: as above; format: biochemical; details: Flt4(h)
protein kinases [13] = molecular target: protein kinases (Homo sapiens, UniProt P36888); test: as above; format: biochemical; details: Flt3(h)
protein kinases [14] = molecular target: protein kinases (Homo sapiens, UniProt P50613); test: as above; format: biochemical; details: CDK7/cyclinH/MAT1(h)
protein kinases [15] = molecular target: protein kinases (Homo sapiens, UniProt P51813); test: as above; format: biochemical; details: Bmx(h)
protein kinases [16] = molecular target: protein kinases (Homo sapiens, UniProt P51955); test: as above; format: biochemical; details: NEK2(h)
protein kinases [17] = molecular target: protein kinases (Homo sapiens, UniProt P54760); test: as above; format: biochemical; details: EphB4(h)
protein kinases [18] = molecular target: protein kinases (Homo sapiens, UniProt Q02750); test: as above; format: biochemical; details: MEK1(h)
protein kinases [19] = molecular target: protein kinases (Homo sapiens, UniProt Q04759); test: as above; format: biochemical; details: PKC0(h)
protein kinases [20] = molecular target: protein kinases (Homo sapiens, UniProt Q05397); test: as above; format: biochemical; details: FAK(h)
protein kinases [21] = molecular target: protein kinases (Homo sapiens, UniProt Q06418); test: as above; format: biochemical; details: Rse(h)
protein kinases [22] = molecular target: protein kinases (Homo sapiens, UniProt Q15303); test: as above; format: biochemical; details: ErbB4(h)
protein kinases [23] = molecular target: protein kinases (Homo sapiens, UniProt Q15418); test: as above; format: biochemical; details: Rsk1(h)
protein kinases [24] = molecular target: protein kinases (Homo sapiens, UniProt Q16832); test: as above; format: biochemical; details: DDR2(h)
protein kinases [25] = molecular target: protein kinases (Homo sapiens, UniProt Q8IW41); test: as above; format: biochemical; details: PRAK(h)
protein kinases [26] = molecular target: protein kinases (Homo sapiens, UniProt Q9H4B4); test: as above; format: biochemical; details: Plk3(h)
protein kinases [27] = molecular target: protein kinases (Homo sapiens, UniProt Q9UM73); test: as above; format: biochemical; details: ALK(h)
protein kinases [28] = test: as above; format: biochemical; details: MAPK1(h)

protein kinases (Homo sapiens, UniProt P10721), sequence (P10721 26-976 limits assumed): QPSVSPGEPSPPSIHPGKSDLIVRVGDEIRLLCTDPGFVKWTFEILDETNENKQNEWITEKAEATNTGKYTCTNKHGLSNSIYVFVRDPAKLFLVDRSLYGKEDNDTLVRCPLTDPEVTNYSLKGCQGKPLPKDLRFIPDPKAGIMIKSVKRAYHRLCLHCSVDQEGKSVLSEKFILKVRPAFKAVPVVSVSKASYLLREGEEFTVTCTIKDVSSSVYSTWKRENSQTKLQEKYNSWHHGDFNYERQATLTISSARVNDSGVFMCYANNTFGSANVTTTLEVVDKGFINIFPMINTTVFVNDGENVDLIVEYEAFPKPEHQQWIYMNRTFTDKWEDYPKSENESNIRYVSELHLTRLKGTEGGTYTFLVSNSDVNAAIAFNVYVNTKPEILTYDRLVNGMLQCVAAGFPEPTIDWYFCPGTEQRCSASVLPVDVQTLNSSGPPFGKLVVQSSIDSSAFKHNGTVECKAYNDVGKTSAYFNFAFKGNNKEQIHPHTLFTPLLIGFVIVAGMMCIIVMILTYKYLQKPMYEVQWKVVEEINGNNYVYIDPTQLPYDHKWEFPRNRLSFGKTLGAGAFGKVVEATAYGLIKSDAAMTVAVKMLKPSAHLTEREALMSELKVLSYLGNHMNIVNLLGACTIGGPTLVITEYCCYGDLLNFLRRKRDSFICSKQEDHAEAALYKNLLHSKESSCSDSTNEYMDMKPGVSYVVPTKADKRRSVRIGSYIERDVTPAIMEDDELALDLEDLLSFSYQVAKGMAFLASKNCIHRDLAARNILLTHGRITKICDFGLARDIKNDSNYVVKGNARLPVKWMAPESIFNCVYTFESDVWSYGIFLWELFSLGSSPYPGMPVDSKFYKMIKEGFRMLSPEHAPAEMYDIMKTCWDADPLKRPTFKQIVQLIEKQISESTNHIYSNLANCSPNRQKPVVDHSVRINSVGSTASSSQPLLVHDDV
protein kinases (Homo sapiens, UniProt Q9UM73), sequence (Q9UM73 19-1620 limits assumed): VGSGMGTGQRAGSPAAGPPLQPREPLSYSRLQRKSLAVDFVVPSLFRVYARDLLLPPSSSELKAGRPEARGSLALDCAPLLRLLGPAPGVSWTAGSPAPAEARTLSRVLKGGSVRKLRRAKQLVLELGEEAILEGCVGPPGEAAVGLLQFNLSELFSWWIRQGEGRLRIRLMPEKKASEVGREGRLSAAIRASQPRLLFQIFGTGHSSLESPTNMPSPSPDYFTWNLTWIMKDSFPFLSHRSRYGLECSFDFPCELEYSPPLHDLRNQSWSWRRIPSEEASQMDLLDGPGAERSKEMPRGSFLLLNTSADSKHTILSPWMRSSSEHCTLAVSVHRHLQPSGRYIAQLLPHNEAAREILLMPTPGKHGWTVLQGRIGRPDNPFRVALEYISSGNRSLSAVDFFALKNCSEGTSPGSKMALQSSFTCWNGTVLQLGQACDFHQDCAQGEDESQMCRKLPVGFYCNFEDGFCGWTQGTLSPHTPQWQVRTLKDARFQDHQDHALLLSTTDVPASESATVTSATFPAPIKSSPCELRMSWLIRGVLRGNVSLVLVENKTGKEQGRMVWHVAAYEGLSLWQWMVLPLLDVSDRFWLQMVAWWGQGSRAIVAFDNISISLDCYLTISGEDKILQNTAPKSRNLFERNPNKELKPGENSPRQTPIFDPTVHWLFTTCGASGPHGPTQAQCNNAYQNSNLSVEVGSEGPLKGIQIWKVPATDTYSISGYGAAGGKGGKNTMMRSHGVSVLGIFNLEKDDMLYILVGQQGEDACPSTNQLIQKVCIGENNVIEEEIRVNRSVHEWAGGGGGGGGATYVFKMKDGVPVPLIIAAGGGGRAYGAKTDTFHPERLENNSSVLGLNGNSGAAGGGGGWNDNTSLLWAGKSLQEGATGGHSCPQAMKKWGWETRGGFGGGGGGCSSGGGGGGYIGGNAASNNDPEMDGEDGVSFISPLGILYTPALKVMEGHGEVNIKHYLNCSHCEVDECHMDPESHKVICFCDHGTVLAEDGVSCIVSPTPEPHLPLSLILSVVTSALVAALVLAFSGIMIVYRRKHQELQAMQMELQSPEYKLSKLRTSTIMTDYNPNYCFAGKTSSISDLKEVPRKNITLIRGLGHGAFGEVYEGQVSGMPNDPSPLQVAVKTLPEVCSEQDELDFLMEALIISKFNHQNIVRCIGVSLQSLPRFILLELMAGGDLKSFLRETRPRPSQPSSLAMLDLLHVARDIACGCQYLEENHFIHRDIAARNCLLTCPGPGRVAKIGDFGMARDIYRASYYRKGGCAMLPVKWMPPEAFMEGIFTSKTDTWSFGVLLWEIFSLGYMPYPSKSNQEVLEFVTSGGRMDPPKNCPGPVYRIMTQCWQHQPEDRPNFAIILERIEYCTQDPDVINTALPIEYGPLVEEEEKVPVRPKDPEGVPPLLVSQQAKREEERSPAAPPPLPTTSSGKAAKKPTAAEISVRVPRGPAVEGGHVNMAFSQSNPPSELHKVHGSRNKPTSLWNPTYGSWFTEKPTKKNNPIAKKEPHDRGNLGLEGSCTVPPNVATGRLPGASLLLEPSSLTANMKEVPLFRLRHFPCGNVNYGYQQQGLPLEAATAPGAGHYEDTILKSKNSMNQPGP
protein kinases (Homo sapiens, UniProt P54760), sequence (P54760 16-987 limits assumed): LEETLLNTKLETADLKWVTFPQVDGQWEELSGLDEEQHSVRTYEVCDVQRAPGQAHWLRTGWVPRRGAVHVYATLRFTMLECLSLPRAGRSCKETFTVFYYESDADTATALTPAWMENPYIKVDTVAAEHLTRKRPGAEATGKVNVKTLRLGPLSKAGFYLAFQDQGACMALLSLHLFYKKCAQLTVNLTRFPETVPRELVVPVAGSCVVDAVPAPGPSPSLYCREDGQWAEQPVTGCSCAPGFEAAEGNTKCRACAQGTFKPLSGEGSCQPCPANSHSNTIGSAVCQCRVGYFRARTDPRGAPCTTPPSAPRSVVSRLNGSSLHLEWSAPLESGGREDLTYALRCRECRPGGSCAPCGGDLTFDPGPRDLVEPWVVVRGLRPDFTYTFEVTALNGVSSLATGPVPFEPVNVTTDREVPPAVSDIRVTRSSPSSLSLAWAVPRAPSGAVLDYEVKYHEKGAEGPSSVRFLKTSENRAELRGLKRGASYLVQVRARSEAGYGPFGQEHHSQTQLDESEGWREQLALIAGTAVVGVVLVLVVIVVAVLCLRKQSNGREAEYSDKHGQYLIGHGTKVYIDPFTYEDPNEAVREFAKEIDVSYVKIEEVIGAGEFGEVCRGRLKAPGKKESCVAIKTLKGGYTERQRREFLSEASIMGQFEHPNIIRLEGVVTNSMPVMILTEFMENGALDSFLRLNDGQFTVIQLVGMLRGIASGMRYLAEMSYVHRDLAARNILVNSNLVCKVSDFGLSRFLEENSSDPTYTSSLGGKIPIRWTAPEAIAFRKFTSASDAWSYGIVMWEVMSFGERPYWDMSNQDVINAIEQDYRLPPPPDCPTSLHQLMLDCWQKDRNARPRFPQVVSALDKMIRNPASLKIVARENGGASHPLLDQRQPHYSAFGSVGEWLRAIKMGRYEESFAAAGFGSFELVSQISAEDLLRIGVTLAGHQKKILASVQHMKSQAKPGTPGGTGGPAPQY
protein kinases (Homo sapiens, UniProt P50613), sequence (P50613 2-346 limits assumed): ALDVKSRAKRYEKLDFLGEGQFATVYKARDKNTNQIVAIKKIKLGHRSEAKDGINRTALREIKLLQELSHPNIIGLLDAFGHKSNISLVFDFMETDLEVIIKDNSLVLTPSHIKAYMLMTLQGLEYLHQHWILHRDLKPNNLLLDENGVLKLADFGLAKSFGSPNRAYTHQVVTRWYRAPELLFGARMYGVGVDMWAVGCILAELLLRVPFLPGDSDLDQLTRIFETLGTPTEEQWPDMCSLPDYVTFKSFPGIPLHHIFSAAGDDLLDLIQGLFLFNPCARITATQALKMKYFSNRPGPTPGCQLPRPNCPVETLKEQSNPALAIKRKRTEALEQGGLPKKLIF
protein kinases (Homo sapiens, UniProt Q06418), sequence (Q06418 41-890 limits assumed): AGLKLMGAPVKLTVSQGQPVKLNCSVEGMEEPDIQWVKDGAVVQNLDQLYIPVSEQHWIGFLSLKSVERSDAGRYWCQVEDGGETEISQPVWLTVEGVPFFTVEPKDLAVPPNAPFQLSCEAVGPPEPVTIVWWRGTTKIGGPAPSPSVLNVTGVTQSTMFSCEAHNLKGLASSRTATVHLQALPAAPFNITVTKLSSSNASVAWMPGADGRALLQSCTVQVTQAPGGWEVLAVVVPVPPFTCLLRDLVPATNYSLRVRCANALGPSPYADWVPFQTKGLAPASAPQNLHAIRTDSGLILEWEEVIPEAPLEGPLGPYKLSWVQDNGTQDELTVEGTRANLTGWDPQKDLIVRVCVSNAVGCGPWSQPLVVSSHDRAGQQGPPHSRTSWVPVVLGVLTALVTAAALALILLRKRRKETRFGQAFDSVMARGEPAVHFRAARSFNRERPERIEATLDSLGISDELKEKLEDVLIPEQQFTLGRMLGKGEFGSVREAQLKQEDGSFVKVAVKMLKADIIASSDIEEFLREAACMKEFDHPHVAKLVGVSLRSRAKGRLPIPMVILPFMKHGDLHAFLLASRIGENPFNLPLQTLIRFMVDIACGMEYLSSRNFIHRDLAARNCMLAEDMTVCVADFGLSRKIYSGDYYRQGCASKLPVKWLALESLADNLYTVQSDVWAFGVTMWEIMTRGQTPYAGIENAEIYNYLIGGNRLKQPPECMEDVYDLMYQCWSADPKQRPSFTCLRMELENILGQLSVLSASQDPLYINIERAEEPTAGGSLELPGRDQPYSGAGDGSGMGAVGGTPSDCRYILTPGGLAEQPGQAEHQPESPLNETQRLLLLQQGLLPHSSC

SMILES: C#Cc1cccc(Nc2nc3cc(C(=O)O)ccc3c3cncnc23)c1 [compound A2]
- Body weight (FIG. 4B) [1]: not significantly altering body weight
- activity at 0.5 µM (protein kinases [2]): 110%
- activity at 0.5 µM (protein kinases [3]): 91%
- activity at 0.5 µM (protein kinases [4]): 90%
- activity at 0.5 µM (protein kinases [5]): 52%
- activity at 0.5 µM (protein kinases [6]): 109%
- activity at 0.5 µM (protein kinases [7]): 111%
- activity at 0.5 µM (protein kinases [8]): 114%
- activity at 0.5 µM (protein kinases [9]): 109%
- activity at 0.5 µM (protein kinases [10]): 109%
- activity at 0.5 µM (protein kinases [11]): 104%
- activity at 0.5 µM (protein kinases [12]): -1%
- activity at 0.5 µM (protein kinases [13]): 42%
- activity at 0.5 µM (protein kinases [14]): 77%
- activity at 0.5 µM (protein kinases [15]): 118%
- activity at 0.5 µM (protein kinases [16]): 77%
- activity at 0.5 µM (protein kinases [17]): 144%
- activity at 0.5 µM (protein kinases [18]): 136%
- activity at 0.5 µM (protein kinases [19]): 111%
- activity at 0.5 µM (protein kinases [20]): 97%
- activity at 0.5 µM (protein kinases [21]): 109%
- activity at 0.5 µM (protein kinases [22]): 126%
- activity at 0.5 µM (protein kinases [23]): 78%
- activity at 0.5 µM (protein kinases [24]): 109%
- activity at 0.5 µM (protein kinases [25]): 93%
- activity at 0.5 µM (protein kinases [26]): 106%
- activity at 0.5 µM (protein kinases [27]): 112%
- % activity at 0.5 μM (protein kinases [28]): 95%
